Measured values reported in ChEMBL document CHEMBL4020788, “Synthesis, SAR and molecular docking studies of benzo[d]thiazole-hydrazones as potential antibacterial and antifungal agents” (2017).
Active and inactive are the calls of the source. The calls are words filed in the database; no cut-off is given here.

Assays:
Format in all cases: functional
[1] = test system: Fusarium verticillioides; test: Antifungal activity against Fusarium moniliforme at 25 ug/ml after 48 hrs by agar well diffusion method; conditions: for zone of inhibition at 25 µg/mL: read-out: DIZ
[2] = test system: Aspergillus niger; test: Antifungal activity against Aspergillus niger at 100 ug/ml after 48 hrs by agar well diffusion method; conditions: for zone of inhibition at 100 µg/mL: read-out: DIZ
[3] = test system: Fusarium oxysporum; test: Antifungal activity against Fusarium oxysporum at 25 ug/ml after 48 hrs by agar well diffusion method; conditions: for zone of inhibition at 25 µg/mL: read-out: DIZ
[4] = test system: Staphylococcus aureus; test: Antibacterial activity against Staphylococcus aureus at 25 ug/ml after 24 hrs by agar well diffusion method
[5] = test system: Fusarium verticillioides; test: Antifungal activity against Fusarium moniliforme at 100 ug/ml after 48 hrs by agar well diffusion method; conditions: for zone of inhibition at 100 µg/mL: read-out: DIZ
[6] = test system: Escherichia coli; test: Antibacterial activity against Escherichia coli at 50 ug/ml after 24 hrs by agar well diffusion method; conditions: for zone of inhibition at 50 µg/mL: read-out: DIZ
[7] = test system: Fusarium oxysporum; test: Antifungal activity against Fusarium oxysporum at 100 ug/ml after 48 hrs by agar well diffusion method; conditions: for zone of inhibition at 100 µg/mL: read-out: DIZ
[8] = test system: Klebsiella pneumoniae; test: Antibacterial activity against Klebsiella pneumoniae at 75 ug/ml after 24 hrs by agar well diffusion method; conditions: read-out: DIZ
[9] = test system: Staphylococcus aureus; test: Antibacterial activity against methicillin resistant Staphylococcus aureus MRSA090 at 50 ug/ml after 24 hrs by agar well diffusion method; conditions: for zone of inhibition at 50 µg/mL: MRSA090, 24 h, read-out: DIZ
[10] = test system: Klebsiella pneumoniae; test: Antibacterial activity against Klebsiella pneumoniae at 100 ug/ml after 24 hrs by agar well diffusion method; conditions: read-out: DIZ
[11] = test system: Bacillus subtilis; test: Antibacterial activity against Bacillus subtilis at 75 ug/ml after 24 hrs by agar well diffusion method; conditions: for zone of inhibition at 75 µg/mL: read-out: DIZ
[12] = test system: Fusarium oxysporum; test: Antifungal activity against Fusarium oxysporum at 50 ug/ml after 48 hrs by agar well diffusion method; conditions: for zone of inhibition at 50 µg/mL: read-out: DIZ
[13] = test system: Bacillus subtilis; test: Antibacterial activity against Bacillus subtilis at 25 ug/ml after 24 hrs by agar well diffusion method; conditions: for zone of inhibition at 25 µg/mL: read-out: DIZ
[14] = test system: Bacillus subtilis; test: Antibacterial activity against Bacillus subtilis at 50 ug/ml after 24 hrs by agar well diffusion method; conditions: for zone of inhibition at 50 µg/mL: read-out: DIZ
[15] = test system: Aspergillus niger; test: Antifungal activity against Aspergillus niger at 50 ug/ml after 48 hrs by agar well diffusion method; conditions: for zone of inhibition at 50 µg/mL: read-out: DIZ
[16] = test system: Klebsiella pneumoniae; test: Antibacterial activity against Klebsiella pneumoniae at 50 ug/ml after 24 hrs by agar well diffusion method; conditions: read-out: DIZ
[17] = test system: Fusarium verticillioides; test: Antifungal activity against Fusarium moniliforme at 50 ug/ml after 48 hrs by agar well diffusion method; conditions: for zone of inhibition at 50 µg/mL: read-out: DIZ
[18] = test system: Staphylococcus aureus; test: Antibacterial activity against methicillin resistant Staphylococcus aureus MRSA090 at 100 ug/ml after 24 hrs by agar well diffusion method; conditions: for zone of inhibition at 100 µg/mL: MRSA090, 24 h, read-out: DIZ
[19] = test system: Klebsiella pneumoniae; test: Antibacterial activity against Klebsiella pneumoniae at 25 ug/ml after 24 hrs by agar well diffusion method; conditions: read-out: DIZ
[20] = test system: Aspergillus niger; test: Antifungal activity against Aspergillus niger at 75 ug/ml after 48 hrs by agar well diffusion method; conditions: for zone of inhibition at 75 µg/mL: read-out: DIZ
[21] = test system: Bacillus subtilis; test: Antibacterial activity against Bacillus subtilis at 100 ug/ml after 24 hrs by agar well diffusion method; conditions: for zone of inhibition at 100 µg/mL: read-out: DIZ
[22] = test system: Aspergillus niger; test: Antifungal activity against Aspergillus niger at 25 ug/ml after 48 hrs by agar well diffusion method; conditions: for zone of inhibition at 25 µg/mL: read-out: DIZ
[23] = test system: Staphylococcus aureus; test: Antibacterial activity against Staphylococcus aureus at 50 ug/ml after 24 hrs by agar well diffusion method
[24] = test system: Escherichia coli; test: Antibacterial activity against Escherichia coli at 100 ug/ml after 24 hrs by agar well diffusion method; conditions: for zone of inhibition at 100 µg/mL: read-out: DIZ
[25] = test system: Escherichia coli; test: Antibacterial activity against Escherichia coli at 25 ug/ml after 24 hrs by agar well diffusion method; conditions: for zone of inhibition at 25 µg/mL: read-out: DIZ
[26] = test system: Fusarium oxysporum; test: Antifungal activity against Fusarium oxysporum at 75 ug/ml after 48 hrs by agar well diffusion method; conditions: for zone of inhibition at 75 µg/mL: read-out: DIZ
[27] = test system: Escherichia coli; test: Antibacterial activity against Escherichia coli at 75 ug/ml after 24 hrs by agar well diffusion method; conditions: for zone of inhibition at 75 µg/mL: read-out: DIZ
[28] = test system: Staphylococcus aureus; test: Antibacterial activity against Staphylococcus aureus at 100 ug/ml after 24 hrs by agar well diffusion method; conditions: for zone of inhibition at 100 µg/mL: read-out: DIZ
[29] = test system: Fusarium verticillioides; test: Antifungal activity against Fusarium moniliforme at 75 ug/ml after 48 hrs by agar well diffusion method; conditions: for zone of inhibition at 75 µg/mL: read-out: DIZ
[30] = test system: Staphylococcus aureus; test: Antibacterial activity against methicillin resistant Staphylococcus aureus MRSA090 at 25 ug/ml after 24 hrs by agar well diffusion method; conditions: for zone of inhibition at 25 µg/mL: MRSA090, 24 h, read-out: DIZ
[31] = test system: Staphylococcus aureus; test: Antibacterial activity against Staphylococcus aureus at 75 ug/ml after 24 hrs by agar well diffusion method; conditions: for zone of inhibition at 75 µg/mL: read-out: DIZ
[32] = test system: Staphylococcus aureus; test: Antibacterial activity against methicillin resistant Staphylococcus aureus MRSA090 at 75 ug/ml after 24 hrs by agar well diffusion method; conditions: for zone of inhibition at 75 µg/mL: MRSA090, 24 h, read-out: DIZ

SMILES: Cc1cccc2nc(N/N=C/c3ccc(Oc4ccccc4)cc3)sc12
- diameter of the inhibition zone (DIZ) [1]: inactive
- diameter of the inhibition zone (DIZ) [2]: inactive
- diameter of the inhibition zone (DIZ) [3]: inactive
- diameter of the inhibition zone (DIZ) [4]: inactive
- zone of inhibition at 100 µg/mL [5]: 14 mm
- diameter of the inhibition zone (DIZ) [6]: inactive
- zone of inhibition at 100 µg/mL [7]: 15 mm
- zone of inhibition at 75 µg/mL [8]: 11 mm
- diameter of the inhibition zone (DIZ) [9]: inactive
- zone of inhibition at 100 µg/mL [10]: 15 mm
- diameter of the inhibition zone (DIZ) [11]: inactive
- diameter of the inhibition zone (DIZ) [12]: inactive
- diameter of the inhibition zone (DIZ) [13]: inactive
- diameter of the inhibition zone (DIZ) [14]: inactive
- diameter of the inhibition zone (DIZ) [15]: inactive
- zone of inhibition at 50 µg/mL [16]: 18 mm
- diameter of the inhibition zone (DIZ) [17]: inactive
- diameter of the inhibition zone (DIZ) [18]: inactive
- zone of inhibition at 25 µg/mL [19]: 4 mm
- diameter of the inhibition zone (DIZ) [20]: inactive
- diameter of the inhibition zone (DIZ) [21]: inactive
- diameter of the inhibition zone (DIZ) [22]: inactive
- diameter of the inhibition zone (DIZ) [23]: inactive
- diameter of the inhibition zone (DIZ) [24]: inactive
- diameter of the inhibition zone (DIZ) [25]: inactive
- zone of inhibition at 75 µg/mL [26]: 10 mm
- diameter of the inhibition zone (DIZ) [27]: inactive
- diameter of the inhibition zone (DIZ) [28]: inactive
- zone of inhibition at 75 µg/mL [29]: 8 mm
- diameter of the inhibition zone (DIZ) [30]: inactive
- diameter of the inhibition zone (DIZ) [31]: inactive
- diameter of the inhibition zone (DIZ) [32]: inactive

SMILES: Cc1cccc2nc(N/N=C/c3ccncc3)sc12
- diameter of the inhibition zone (DIZ) [1]: inactive
- zone of inhibition at 100 µg/mL [2]: 16 mm
- diameter of the inhibition zone (DIZ) [3]: inactive
- diameter of the inhibition zone (DIZ) [4]: inactive
- diameter of the inhibition zone (DIZ) [5]: inactive
- zone of inhibition at 50 µg/mL [6]: 14 mm
- diameter of the inhibition zone (DIZ) [7]: inactive
- zone of inhibition at 75 µg/mL [8]: 14 mm
- zone of inhibition at 50 µg/mL [9]: 10 mm
- zone of inhibition at 100 µg/mL [10]: 18 mm
- diameter of the inhibition zone (DIZ) [11]: inactive
- diameter of the inhibition zone (DIZ) [12]: inactive
- diameter of the inhibition zone (DIZ) [13]: inactive
- diameter of the inhibition zone (DIZ) [14]: inactive
- zone of inhibition at 50 µg/mL [15]: 11 mm
- zone of inhibition at 50 µg/mL [16]: 9 mm
- diameter of the inhibition zone (DIZ) [17]: inactive
- zone of inhibition at 100 µg/mL [18]: 17 mm
- zone of inhibition at 25 µg/mL [19]: 5 mm
- zone of inhibition at 75 µg/mL [20]: 13 mm
- diameter of the inhibition zone (DIZ) [21]: inactive
- zone of inhibition at 25 µg/mL [22]: 6 mm
- diameter of the inhibition zone (DIZ) [23]: inactive
- zone of inhibition at 100 µg/mL [24]: 19 mm
- zone of inhibition at 25 µg/mL [25]: 7 mm
- diameter of the inhibition zone (DIZ) [26]: inactive
- zone of inhibition at 75 µg/mL [27]: 16 mm
- diameter of the inhibition zone (DIZ) [28]: inactive
- diameter of the inhibition zone (DIZ) [29]: inactive
- zone of inhibition at 25 µg/mL [30]: 7 mm
- diameter of the inhibition zone (DIZ) [31]: inactive
- zone of inhibition at 75 µg/mL [32]: 14 mm

SMILES: Cc1cccc2nc(N/N=C/c3ccc(F)cc3)sc12
- zone of inhibition at 25 µg/mL [1]: 14 mm
- zone of inhibition at 100 µg/mL [2]: 22 mm
- zone of inhibition at 25 µg/mL [3]: 10 mm
- zone of inhibition at 25 µg/mL ([4]; read-out: DIZ): 9 mm
- zone of inhibition at 100 µg/mL [5]: 30 mm
- zone of inhibition at 50 µg/mL [6]: 9 mm
- zone of inhibition at 100 µg/mL [7]: 21 mm
- zone of inhibition at 75 µg/mL [8]: 16 mm
- zone of inhibition at 50 µg/mL [9]: 12 mm
- zone of inhibition at 100 µg/mL [10]: 19 mm
- zone of inhibition at 75 µg/mL [11]: 12 mm
- zone of inhibition at 50 µg/mL [12]: 13 mm
- zone of inhibition at 25 µg/mL [13]: 6 mm
- zone of inhibition at 50 µg/mL [14]: 9 mm
- zone of inhibition at 50 µg/mL [15]: 13 mm
- zone of inhibition at 50 µg/mL [16]: 11 mm
- zone of inhibition at 50 µg/mL [17]: 18 mm
- zone of inhibition at 100 µg/mL [18]: 19 mm
- zone of inhibition at 25 µg/mL [19]: 6 mm
- zone of inhibition at 75 µg/mL [20]: 18 mm
- zone of inhibition at 100 µg/mL [21]: 14 mm
- zone of inhibition at 25 µg/mL [22]: 10 mm
- zone of inhibition at 50 µg/mL ([23]; read-out: DIZ): 12 mm
- zone of inhibition at 100 µg/mL [24]: 17 mm
- zone of inhibition at 25 µg/mL [25]: 5 mm
- zone of inhibition at 75 µg/mL [26]: 18 mm
- zone of inhibition at 75 µg/mL [27]: 14 mm
- zone of inhibition at 100 µg/mL [28]: 18 mm
- zone of inhibition at 75 µg/mL [29]: 21 mm
- zone of inhibition at 25 µg/mL [30]: 8 mm
- zone of inhibition at 75 µg/mL [31]: 16 mm
- zone of inhibition at 75 µg/mL [32]: 16 mm

SMILES: Cc1cccc2nc(N/N=C/c3ccc(Br)cc3)sc12
- zone of inhibition at 25 µg/mL [1]: 12 mm
- zone of inhibition at 100 µg/mL [2]: 28 mm
- zone of inhibition at 25 µg/mL [3]: 13 mm
- diameter of the inhibition zone (DIZ) [4]: inactive
- zone of inhibition at 100 µg/mL [5]: 28 mm
- zone of inhibition at 50 µg/mL [6]: 7 mm
- zone of inhibition at 100 µg/mL [7]: 29 mm
- zone of inhibition at 75 µg/mL [8]: 14 mm
- zone of inhibition at 50 µg/mL [9]: 11 mm
- zone of inhibition at 100 µg/mL [10]: 17 mm
- zone of inhibition at 75 µg/mL [11]: 11 mm
- zone of inhibition at 50 µg/mL [12]: 18 mm
- zone of inhibition at 25 µg/mL [13]: 4 mm
- zone of inhibition at 50 µg/mL [14]: 7 mm
- zone of inhibition at 50 µg/mL [15]: 18 mm
- zone of inhibition at 50 µg/mL [16]: 11 mm
- zone of inhibition at 50 µg/mL [17]: 17 mm
- zone of inhibition at 100 µg/mL [18]: 19 mm
- zone of inhibition at 25 µg/mL [19]: 6 mm
- zone of inhibition at 75 µg/mL [20]: 23 mm
- zone of inhibition at 100 µg/mL [21]: 13 mm
- zone of inhibition at 25 µg/mL [22]: 14 mm
- diameter of the inhibition zone (DIZ) [23]: inactive
- zone of inhibition at 100 µg/mL [24]: 14 mm
- zone of inhibition at 25 µg/mL [25]: 3 mm
- zone of inhibition at 75 µg/mL [26]: 23 mm
- zone of inhibition at 75 µg/mL [27]: 11 mm
- zone of inhibition at 100 µg/mL [28]: 9 mm
- zone of inhibition at 75 µg/mL [29]: 24 mm
- zone of inhibition at 25 µg/mL [30]: 9 mm
- zone of inhibition at 75 µg/mL [31]: 5 mm
- zone of inhibition at 75 µg/mL [32]: 15 mm
